From US20210392895A1, “NOVEL OXADIAZOLES” (PI INDUSTRIES LIMITED, priority 2018, published 2021)

Tests used:
[1] = system: Pyricularia oryzae; assay: microbe, parasite or virus in culture; type: cell-based; settings: 168 h, read-out: control
[2] = system: Rhizoctonia solani; assay: Rhizoctonia solani (rice sheath blight/potato black scurf) in vitro test, radial growth on Potato Dextrose Agar; type: cell-based; settings: 168 h, compared to the untreated check, radial growth after seven days, read-out: control
[3] = system: Botrytis cinerea; assay: Botrytis cinerea (gray mold) in vitro test, radial growth on Potato Dextrose Agar; type: cell-based; settings: 168 h, compared to the untreated check, radial growth after seven days, read-out: control
[4] = system: Alternaria solani; assay: Alternaria solani (early blight of tomato/potato) in vitro test, radial growth on Potato Dextrose Agar; type: cell-based; settings: 168 h, compared to the untreated check, radial growth after seven days, read-out: control
[5] = system: Fusarium culmorum; assay: Fusarium culmorum (foot rot of cereals) in vitro test, radial growth on Potato Dextrose Agar; type: cell-based; settings: 168 h, 25° C., seven days, read-out: control compared to the untreated check (radial growth)
[6] = system: Corynespora cassicola; assay: Corynespora cassicola (leaf spot of tomato) in vitro test, radial growth on Potato Dextrose Agar; type: cell-based; settings: 168 h, compared to the untreated check, radial growth after seven days, read-out: control
[7] = system: Phakopsora pachyrhizi; assay: Phakopsora pachyrhizi test in soybean (greenhouse, preventive activity, disease severity rating); type: in vivo; settings: preventive spray on soybean, compared to the untreated check
How it was run: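 Greenhouse-raised young soybean plants sprayed with compound at stated rates, then inoculated one day later with 2.1×10^6 P. pachyrhizi spores and held at 25° C, 90% RH. Disease severity (0-100%) rated visually 3, 7, 10 and 15 days after application; % control calculated versus untreated plants.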

[8] = system: Colletotrichum capsici; assay: Colletotrichum capsici (anthracnose) in vitro test, radial growth on Potato Dextrose Agar; settings: Colletotrichum truncatum, 168 h, read-out: control
Protocol: Compounds were dissolved in 0.3% DMSO and then added to Potato Dextrose Agar medium just prior to dispensing it into petri dishes. 5 mL medium with compound in the desired concentration was dispensed into 60 mm sterile petri-plates. After solidification, each plate was seeded with a 5 mm size mycelial disc taken form the periphery of an actively growing virulent culture plate. Plates were incubated in growth chambers at 25° C. temperature and 60% relative humidity for seven days and radial growth was measured.

CC(=O)N1CC[C@H](Oc2ccc(-c3noc(C(F)(F)F)n3)cc2)C1 [Compound 2, (S)-1-(3-(4-(5-(trifluoromethyl)-1,2,4-oxadiazol-3-yl)phenoxy)pyrrolidin-1-yl)ethan-1-one]
> 70%: inhibition of growth at 300 ppm [1] | inhibition of growth at 300 ppm [2] | inhibition of growth at 300 ppm [3] | inhibition of growth at 300 ppm [4] | inhibition of growth at 300 ppm [5] | inhibition of growth at 300 ppm [6] | pest or weed control at 500 ppm [7] | inhibition of growth at 300 ppm [8]

CC(=O)N1CC(N(C)c2ccc(-c3noc(C(F)(F)F)n3)cc2)C1 [Compound 89, 1-(3-(methyl(4-(5-(trifluoromethyl)-1,2,4-oxadiazol-3-yl)phenyl)amino)azetidin-1-yl)ethan-1-one]
> 70%: inhibition of growth at 300 ppm [1] | inhibition of growth at 300 ppm [2] | inhibition of growth at 300 ppm [3] | inhibition of growth at 300 ppm [4] | inhibition of growth at 300 ppm [5] | inhibition of growth at 300 ppm [6] | inhibition of growth at 300 ppm [8]

CC(=O)N1CC[C@H](Oc2ccc(-c3noc(C(F)(F)F)n3)cc2F)C1 [Compound 69, (S)-1-(3-(2-fluoro-4-(5-(trifluoromethyl)-1,2,4-oxadiazol-3-yl)phenoxy)pyrrolidin-1-yl)ethan-1-one]
> 70%: inhibition of growth at 300 ppm [1] | inhibition of growth at 300 ppm [2] | inhibition of growth at 300 ppm [3] | inhibition of growth at 300 ppm [4] | inhibition of growth at 300 ppm [5] | inhibition of growth at 300 ppm [6] | inhibition of growth at 300 ppm [8]

CCC(=O)N1CC(N(C)c2ccc(-c3noc(C(F)(F)F)n3)cc2)C1 [Compound 100, 1-(3-(methyl(4-(5-(trifluoromethyl)-1,2,4-oxadiazol-3-yl)phenyl)amino)azetidin-1-yl)propan-1-one]
> 70%: inhibition of growth at 300 ppm [1] | inhibition of growth at 300 ppm [2] | inhibition of growth at 300 ppm [3] | inhibition of growth at 300 ppm [4] | inhibition of growth at 300 ppm [5] | inhibition of growth at 300 ppm [6] | pest or weed control at 500 ppm [7] | inhibition of growth at 300 ppm [8]

O=C(c1ccncc1)N1CC[C@H](Oc2ccc(-c3noc(C(F)(F)F)n3)c(F)c2)C1 [Compound 66, (S)-(3-(3-fluoro-4-(5-(trifluoromethyl)-1,2,4-oxadiazol-3-yl)phenoxy)pyrrolidin-1-yl)(pyridin-4-yl)methanone]
> 70%: inhibition of growth at 300 ppm [1] | inhibition of growth at 300 ppm [2] | inhibition of growth at 300 ppm [3] | inhibition of growth at 300 ppm [4] | inhibition of growth at 300 ppm [5] | inhibition of growth at 300 ppm [6] | inhibition of growth at 300 ppm [8]
